Measured values published in paper PMC11096368, “Transcriptomic signature, bioactivity and safety of a non-hepatotoxic analgesic generating AM404 in the midbrain PAG region” (Scientific Reports, 2024).

Assay: LC–MS/MS detection of D10-SRP-001 and AM404 in the periaqueductal gray (PAG)
Assay type: in vivo, rats
Conditions: 30 min after IP injection, LC/MS–MS
Method: Next, we sought to define the uptake of SRP-001 in the nociception area of the brain, the midbrain’s periaqueductal (PAG) area[42],[43]. Thirty min following ip-SRP-001 administration (32 mg/kg), the PAG was harvested and analyzed by LC/MS–MS. D10-SRP-001 was used to match the fragmentation pattern while monitoring analytes.
Deuterated compound D10-SRP-001 was synthesized by Olon Ricerca Bioscience (Concord, OH), and purity was determined to be > 99.9% by HPLC. This was used as pure analytical standard for detection of SRP-001 using an LC–MS/MS method. Similarly, pure analytical standard of AM404 (10 ng/mL) obtained from Cayman Chemical (Ann Arbor, MI) was used to characterize the full fragmentation pattern of AM404. […] Thirty min post-injection, the animals were sacrificed (same as in the CFA/von Frey model), their brains harvested, and the midbrain periaqueductal gray (PAG) region excised. SRP-001 or AM404 were extracted from the PAG using a liquid–liquid extraction method using 1:1 MeOH:H2O for LC–MS/MS and were loaded onto a liquid chromatography-tandem mass spectrophotometer for analysis. The mass spectrophotometer was operated in multiple reaction monitoring (MRM) mode using positive ion electrospray. D10-SRP-001 was detected by monitoring the m/z transition 416 → 186. AM404 was detected by monitoring the m/z transition 396 → 287.

Detection in rat brain: detected in the brain
Structure (SMILES): [2H]C([2H])([2H])C([2H])([2H])N(C(=O)c1ccccc1S(=O)(=O)NCC(=O)Nc1ccc(O)cc1)C([2H])([2H])C([2H])([2H])[2H] [D10-SRP-001]
